SMILES strings stand for the structures.

The test system of the assay is plant. In words: Plant growth and disease resistance induction by Trichoderma metabolite. Format: in vivo. The conditions noted are these: at very low concentrations. From the text:
These endophytic microorganisms frequently are fully symbiotic with plants (Harman, Howell, et al., 2004). These endophytic symbionts have abilities to induce multiple beneficial effects in plants, including induced resistance to diseases and potentially other pests; resistance to abiotic stresses such as drought, salt and flooding; improved efficiency of uses of nitrogen and other plant nutrients; enhancement of seed germination and seedling vigor; and enhanced plant growth and development. There are numerous diverse genera of microbes that induce at least most of these changes in plant performance, including mycorrhizae, plant growth promoting rhizobacteria, and Basidomycetous fungi in the Sebaciles such as Piriformaspora indica. These organisms have an endophytic versus a plant pathogenic life style (Shoresh, Mastouri, et al., 2010) typical of numerous other plant-associated microorganisms. The systemic changes in plant gene expression are presumed to be induced by the production of specific triggering metabolites from these different organisms. […] (Cawoy, Mariutto, et al., 2014, Debois, Fernandez, et al., 2015), and hydrophobic proteins (Djonovic, Vargas, et al., 2007, Ruoccco, Lanzuise, et al., 2015) and volatile and nonvolatile metabolites from Trichoderma […], et al., 2008).

Consider `C=CC(O)CCCCC` (centres unmarked) [1-octene-3-ol], for which the “induction of plant disease resistance” value was “highly effective” and the plant growth entry is “strongly enhances”.

(Values after patent US11464227B2, “Enhanced microbial and biorational control of nematode pests of plants” (ADVANCED BIOLOGICAL MARKETING, INC., priority 2017, dated 2022).)
